According to ChEMBL document CHEMBL3112480, “γ-Alkylidene-γ-lactones and isobutylpyrrol-2(5H)-ones analogues to rubrolides as inhibitors of biofilm formation by gram-positive and gram-negative bacteria” (Bioorg Med Chem Lett, 2014):

Test system: Streptococcus mutans
Experiment: Antibacterial activity against Streptococcus mutans ATCC 25175 assessed as effect on planktonic growth at 5.5 ug/ml after 20 hrs relative to control
Format: functional
Settings: not given

Compound | Activity
COc1ccccc1C1=C(Br)C(=O)O/C1=C\c1ccc(C(F)(F)F)cc1 | -4.8%

Test system: Staphylococcus epidermidis
Experiment: Antibacterial activity against Staphylococcus epidermidis ATCC 35547 assessed as effect on planktonic growth at 2.73 ug/ml after 20 hrs relative to control
Format: functional
Settings: not given

Compound | Activity
COc1ccccc1C1=C(Br)C(=O)O/C1=C\c1ccc(C(F)(F)F)cc1 | 12.9%

Test system: Staphylococcus epidermidis
Experiment: Antibacterial activity against Staphylococcus epidermidis ATCC 35547 assessed as effect on planktonic growth at 0.68 ug/ml after 20 hrs relative to control
Format: functional
Settings: not given

Compound | Activity
COc1ccccc1C1=C(Br)C(=O)O/C1=C\c1ccc(C(F)(F)F)cc1 | -16.5%

Test system: Pseudomonas aeruginosa
Experiment: Antibacterial activity against Pseudomonas aeruginosa ATCC 27853 assessed as effect on planktonic growth at 0.17 ug/ml after 20 hrs relative to control
Format: functional
Settings: not given

Compound | Activity
COc1ccccc1C1=C(Br)C(=O)O/C1=C\c1ccc(C(F)(F)F)cc1 | -1.3%

Test system: Staphylococcus epidermidis
Experiment: Antibacterial activity against Staphylococcus epidermidis ATCC 35547 assessed as effect on planktonic growth at 87.5 ug/ml after 20 hrs relative to control
Format: functional
Settings: not given

Compound | Activity
COc1ccccc1C1=C(Br)C(=O)O/C1=C\c1ccc(C(F)(F)F)cc1 | 14.7%

Test system: Staphylococcus aureus
Experiment: Antibacterial activity against Staphylococcus aureus ATCC 25923 assessed as effect on planktonic growth at 0.34 ug/ml after 20 hrs relative to control
Format: functional
Settings: not given

Compound | Activity
COc1ccccc1C1=C(Br)C(=O)O/C1=C\c1ccc(C(F)(F)F)cc1 | -2%

Test system: Pseudomonas aeruginosa
Experiment: Antibacterial activity against Pseudomonas aeruginosa ATCC 27853 assessed as inhibition of biofilm formation after 20 hrs by crystal-violet staining method
Format: functional, organism-based
Settings: not given

Compound | inhibition
COc1ccccc1C1=C(Br)C(=O)O/C1=C\c1ccc(C(F)(F)F)cc1 | Dose-dependent effect

Same assay, conditions: ATCC 27853, 20 h

Compound | IC50
COc1ccccc1C1=C(Br)C(=O)O/C1=C\c1ccc(C(F)(F)F)cc1 | > 87.5 µg/mL

Test system: Staphylococcus epidermidis
Experiment: Antibacterial activity against Staphylococcus epidermidis ATCC 35547 assessed as effect on planktonic growth at 21.9 ug/ml after 20 hrs relative to control
Format: functional
Settings: not given

Compound | Activity
COc1ccccc1C1=C(Br)C(=O)O/C1=C\c1ccc(C(F)(F)F)cc1 | 18.7%

Test system: Pseudomonas aeruginosa
Experiment: Antibacterial activity against Pseudomonas aeruginosa ATCC 27853 assessed as effect on planktonic growth at 1.37 ug/ml after 20 hrs relative to control
Format: functional
Settings: not given

Compound | Activity
COc1ccccc1C1=C(Br)C(=O)O/C1=C\c1ccc(C(F)(F)F)cc1 | -5.7%

Test system: Staphylococcus epidermidis
Experiment: Antibacterial activity against Staphylococcus epidermidis ATCC 35547 assessed as effect on planktonic growth at 0.34 ug/ml after 20 hrs relative to control
Format: functional
Settings: not given

Compound | Activity
COc1ccccc1C1=C(Br)C(=O)O/C1=C\c1ccc(C(F)(F)F)cc1 | -14.8%

Test system: Staphylococcus epidermidis
Experiment: Antibacterial activity against Staphylococcus epidermidis ATCC 35547 assessed as effect on planktonic growth at 0.17 ug/ml after 20 hrs relative to control
Format: functional
Settings: not given

Compound | Activity
COc1ccccc1C1=C(Br)C(=O)O/C1=C\c1ccc(C(F)(F)F)cc1 | -12.1%

Test system: Staphylococcus aureus
Experiment: Antibacterial activity against Staphylococcus aureus ATCC 25923 assessed as effect on planktonic growth at 1.37 ug/ml after 20 hrs relative to control
Format: functional
Settings: not given

Compound | Activity
COc1ccccc1C1=C(Br)C(=O)O/C1=C\c1ccc(C(F)(F)F)cc1 | -0.5%

Test system: Staphylococcus aureus
Experiment: Antibacterial activity against Staphylococcus aureus ATCC 25923 assessed as effect on planktonic growth at 0.68 ug/ml after 20 hrs relative to control
Format: functional
Settings: not given

Compound | Activity
COc1ccccc1C1=C(Br)C(=O)O/C1=C\c1ccc(C(F)(F)F)cc1 | -2.3%

Test system: Streptococcus mutans
Experiment: Antibacterial activity against Streptococcus mutans ATCC 25175 assessed as effect on planktonic growth at 87.5 ug/ml after 20 hrs relative to control
Format: functional
Settings: not given

Compound | Activity
COc1ccccc1C1=C(Br)C(=O)O/C1=C\c1ccc(C(F)(F)F)cc1 | 58.9%

Test system: Streptococcus mutans
Experiment: Antibacterial activity against Streptococcus mutans ATCC 25175 assessed as effect on planktonic growth at 21.9 ug/ml after 20 hrs relative to control
Format: functional
Settings: not given

Compound | Activity
COc1ccccc1C1=C(Br)C(=O)O/C1=C\c1ccc(C(F)(F)F)cc1 | 0.6%

Test system: Pseudomonas aeruginosa
Experiment: Antibacterial activity against Pseudomonas aeruginosa ATCC 27853 assessed as effect on planktonic growth at 10.9 ug/ml after 20 hrs relative to control
Format: functional
Settings: not given

Compound | Activity
COc1ccccc1C1=C(Br)C(=O)O/C1=C\c1ccc(C(F)(F)F)cc1 | 49.9%

Test system: Staphylococcus aureus
Experiment: Antibacterial activity against Staphylococcus aureus ATCC 25923 assessed as effect on planktonic growth at 0.17 ug/ml after 20 hrs relative to control
Format: functional
Settings: not given

Compound | Activity
COc1ccccc1C1=C(Br)C(=O)O/C1=C\c1ccc(C(F)(F)F)cc1 | -3.6%

Test system: Pseudomonas aeruginosa
Experiment: Antibacterial activity against Pseudomonas aeruginosa ATCC 27853 assessed as effect on planktonic growth at 2.73 ug/ml after 20 hrs relative to control
Format: functional
Settings: not given

Compound | Activity
COc1ccccc1C1=C(Br)C(=O)O/C1=C\c1ccc(C(F)(F)F)cc1 | -7%

Test system: Streptococcus mutans
Experiment: Antibacterial activity against Streptococcus mutans ATCC 25175 assessed as effect on planktonic growth at 1.37 ug/ml after 20 hrs relative to control
Format: functional
Settings: not given

Compound | Activity
COc1ccccc1C1=C(Br)C(=O)O/C1=C\c1ccc(C(F)(F)F)cc1 | -6.5%

Test system: Staphylococcus epidermidis
Experiment: Antibacterial activity against Staphylococcus epidermidis ATCC 35547 assessed as effect on planktonic growth at 5.5 ug/ml after 20 hrs relative to control
Format: functional
Settings: not given

Compound | Activity
COc1ccccc1C1=C(Br)C(=O)O/C1=C\c1ccc(C(F)(F)F)cc1 | -9.1%

Test system: Pseudomonas aeruginosa
Experiment: Antibacterial activity against Pseudomonas aeruginosa ATCC 27853 assessed as effect on planktonic growth at 21.9 ug/ml after 20 hrs relative to control
Format: functional
Settings: not given

Compound | Activity
COc1ccccc1C1=C(Br)C(=O)O/C1=C\c1ccc(C(F)(F)F)cc1 | 58%

Test system: Staphylococcus epidermidis
Experiment: Antibacterial activity against Staphylococcus epidermidis ATCC 35547 assessed as effect on planktonic growth at 10.9 ug/ml after 20 hrs relative to control
Format: functional
Settings: not given

Compound | Activity
COc1ccccc1C1=C(Br)C(=O)O/C1=C\c1ccc(C(F)(F)F)cc1 | 10.3%

Test system: Staphylococcus aureus
Experiment: Antibacterial activity against Staphylococcus aureus ATCC 25923 assessed as effect on planktonic growth at 2.73 ug/ml after 20 hrs relative to control
Format: functional
Settings: not given

Compound | Activity
COc1ccccc1C1=C(Br)C(=O)O/C1=C\c1ccc(C(F)(F)F)cc1 | 6.6%

Test system: Pseudomonas aeruginosa
Experiment: Antibacterial activity against Pseudomonas aeruginosa ATCC 27853 assessed as effect on planktonic growth at 0.68 ug/ml after 20 hrs relative to control
Format: functional
Settings: not given

Compound | Activity
COc1ccccc1C1=C(Br)C(=O)O/C1=C\c1ccc(C(F)(F)F)cc1 | -1.3%

Test system: Staphylococcus aureus
Experiment: Antibacterial activity against Staphylococcus aureus ATCC 25923 assessed as effect on planktonic growth at 21.9 ug/ml after 20 hrs relative to control
Format: functional
Settings: not given

Compound | Activity
COc1ccccc1C1=C(Br)C(=O)O/C1=C\c1ccc(C(F)(F)F)cc1 | 26.7%

Test system: Staphylococcus aureus
Experiment: Antibacterial activity against Staphylococcus aureus ATCC 25923 assessed as effect on planktonic growth at 5.5 ug/ml after 20 hrs relative to control
Format: functional
Settings: not given

Compound | Activity
COc1ccccc1C1=C(Br)C(=O)O/C1=C\c1ccc(C(F)(F)F)cc1 | 9.9%

Test system: Staphylococcus aureus
Experiment: Antibacterial activity against Staphylococcus aureus ATCC 25923 assessed as effect on planktonic growth at 10.9 ug/ml after 20 hrs relative to control
Format: functional
Settings: not given

Compound | Activity
COc1ccccc1C1=C(Br)C(=O)O/C1=C\c1ccc(C(F)(F)F)cc1 | 9.7%

Test system: Staphylococcus aureus
Experiment: Antibacterial activity against Staphylococcus aureus ATCC 25923 assessed as effect on planktonic growth at 43.8 ug/ml after 20 hrs relative to control
Format: functional
Settings: not given

Compound | Activity
COc1ccccc1C1=C(Br)C(=O)O/C1=C\c1ccc(C(F)(F)F)cc1 | 47.3%

Test system: Streptococcus mutans
Experiment: Antibacterial activity against Streptococcus mutans ATCC 25175 assessed as effect on planktonic growth at 0.17 ug/ml after 20 hrs relative to control
Format: functional
Settings: not given

Compound | Activity
COc1ccccc1C1=C(Br)C(=O)O/C1=C\c1ccc(C(F)(F)F)cc1 | -3.1%

Test system: Pseudomonas aeruginosa
Experiment: Antibacterial activity against Pseudomonas aeruginosa ATCC 27853 assessed as effect on planktonic growth at 0.34 ug/ml after 20 hrs relative to control
Format: functional
Settings: not given

Compound | Activity
COc1ccccc1C1=C(Br)C(=O)O/C1=C\c1ccc(C(F)(F)F)cc1 | -0.4%

Test system: Streptococcus mutans
Experiment: Antibacterial activity against Streptococcus mutans ATCC 25175 assessed as effect on planktonic growth at 43.8 ug/ml after 20 hrs relative to control
Format: functional
Settings: not given

Compound | Activity
COc1ccccc1C1=C(Br)C(=O)O/C1=C\c1ccc(C(F)(F)F)cc1 | 21.5%

Test system: Staphylococcus epidermidis
Experiment: Antibacterial activity against Staphylococcus epidermidis ATCC 35547 assessed as effect on planktonic growth at 1.37 ug/ml after 20 hrs relative to control
Format: functional
Settings: not given

Compound | Activity
COc1ccccc1C1=C(Br)C(=O)O/C1=C\c1ccc(C(F)(F)F)cc1 | 2.9%

Test system: Streptococcus mutans
Experiment: Antibacterial activity against Streptococcus mutans ATCC 25175 assessed as effect on planktonic growth at 10.9 ug/ml after 20 hrs relative to control
Format: functional
Settings: not given

Compound | Activity
COc1ccccc1C1=C(Br)C(=O)O/C1=C\c1ccc(C(F)(F)F)cc1 | -9.3%

Test system: Staphylococcus epidermidis
Experiment: Antibacterial activity against Staphylococcus epidermidis ATCC 35547 assessed as effect on planktonic growth at 43.8 ug/ml after 20 hrs relative to control
Format: functional
Settings: not given

Compound | Activity
COc1ccccc1C1=C(Br)C(=O)O/C1=C\c1ccc(C(F)(F)F)cc1 | 30.7%

Test system: Streptococcus mutans
Experiment: Antibacterial activity against Streptococcus mutans ATCC 25175 assessed as effect on planktonic growth at 0.34 ug/ml after 20 hrs relative to control
Format: functional
Settings: not given

Compound | Activity
COc1ccccc1C1=C(Br)C(=O)O/C1=C\c1ccc(C(F)(F)F)cc1 | 1.1%

Test system: Streptococcus mutans
Experiment: Antibacterial activity against Streptococcus mutans ATCC 25175 assessed as effect on planktonic growth at 2.73 ug/ml after 20 hrs relative to control
Format: functional
Settings: not given

Compound | Activity
COc1ccccc1C1=C(Br)C(=O)O/C1=C\c1ccc(C(F)(F)F)cc1 | -4%

Test system: Pseudomonas aeruginosa
Experiment: Antibacterial activity against Pseudomonas aeruginosa ATCC 27853 assessed as effect on planktonic growth at 5.5 ug/ml after 20 hrs relative to control
Format: functional
Settings: not given

Compound | Activity
COc1ccccc1C1=C(Br)C(=O)O/C1=C\c1ccc(C(F)(F)F)cc1 | 7.9%

Test system: Staphylococcus epidermidis
Experiment: Antibacterial activity against Staphylococcus epidermidis ATCC 35547 assessed as inhibition of biofilm formation after 20 hrs by crystal-violet staining method
Format: functional, organism-based
Settings: not given

Compound | inhibition
COc1ccccc1C1=C(Br)C(=O)O/C1=C\c1ccc(C(F)(F)F)cc1 | Dose-dependent effect

Same assay, conditions: ATCC 35547, 20 h

Compound | IC50
COc1ccccc1C1=C(Br)C(=O)O/C1=C\c1ccc(C(F)(F)F)cc1 | > 87.5 µg/mL

Test system: Pseudomonas aeruginosa
Experiment: Antibacterial activity against Pseudomonas aeruginosa ATCC 27853 assessed as effect on planktonic growth at 43.8 ug/ml after 20 hrs relative to control
Format: functional
Settings: not given

Compound | Activity
COc1ccccc1C1=C(Br)C(=O)O/C1=C\c1ccc(C(F)(F)F)cc1 | 34.3%

Test system: Staphylococcus aureus
Experiment: Antibacterial activity against Staphylococcus aureus ATCC 25923 assessed as effect on planktonic growth at 87.5 ug/ml after 20 hrs relative to control
Format: functional
Settings: not given

Compound | Activity
COc1ccccc1C1=C(Br)C(=O)O/C1=C\c1ccc(C(F)(F)F)cc1 | 81.2%

Test system: Pseudomonas aeruginosa
Experiment: Antibacterial activity against Pseudomonas aeruginosa ATCC 27853 assessed as effect on planktonic growth at 87.5 ug/ml after 20 hrs relative to control
Format: functional
Settings: not given

Compound | Activity
COc1ccccc1C1=C(Br)C(=O)O/C1=C\c1ccc(C(F)(F)F)cc1 | 15.1%

Test system: Streptococcus mutans
Experiment: Antibacterial activity against Streptococcus mutans ATCC 25175 assessed as effect on planktonic growth at 0.68 ug/ml after 20 hrs relative to control
Format: functional
Settings: not given

Compound | Activity
COc1ccccc1C1=C(Br)C(=O)O/C1=C\c1ccc(C(F)(F)F)cc1 | -1.7%
